Columns and labels:
KRas G12C = KRas G12C (Homo sapiens, UniProt P01116, G12C); type: binding; details: TR-FRET displacement, read-out: Binding to KRas (IC50 nM) G12C
KRas G12V = KRas G12V (Homo sapiens, UniProt P01116, G12V); assay: biochemical; details: Binding to KRas (IC50 nM) G12V, TR-FRET displacement, KRas G12V
KRas G12S = KRas G12S (Homo sapiens, UniProt P01116, G12S); type: binding; details: TR-FRET displacement, read-out: Binding to KRas (IC50 nM) G12S
A549 cells = assay: Inhibition of KRas-mediated phosphorylation of ERK (Cisbio HTRF pERK), A549 cells; type: cell-based; details: Homo sapiens, A549, 3 h, 3 hr compound incubation
KRas G12D = KRas G12D (Homo sapiens, UniProt P01116, G12D); assay: biochemical; details: Binding to KRas (IC50 nM) G12D, TR-FRET displacement, KRas G12D
Sequence of KRas G12D (P01116 1-169 isoform P01116-2 G12D): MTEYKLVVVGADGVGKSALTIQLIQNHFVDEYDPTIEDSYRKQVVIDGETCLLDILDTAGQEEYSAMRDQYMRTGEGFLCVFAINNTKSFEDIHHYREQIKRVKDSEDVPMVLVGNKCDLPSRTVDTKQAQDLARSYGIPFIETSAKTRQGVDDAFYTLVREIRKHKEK

ASPC1 cells = assay: Inhibition of KRas-mediated phosphorylation of ERK (Cisbio HTRF pERK), ASPC1 cells; type: cell-based; details: Homo sapiens, ASPC1, 3 h, AsPC-1 cells, 3 hr compound incubation
H727 cells = assay: Inhibition of KRas-mediated phosphorylation of ERK (Cisbio HTRF pERK), H727 cells; type: cell-based; details: Homo sapiens, NCI-H727, 3 h, 3 hr compound incubation
H460 cells = assay: Inhibition of KRas-mediated phosphorylation of ERK (Cisbio HTRF pERK), H460 cells; type: cell-based; details: Homo sapiens, NCI-H460, 3 h, 3 hr compound incubation
HCT116 cells = assay: Inhibition of KRas-mediated phosphorylation of ERK (Cisbio HTRF pERK), HCT116 cells; type: cell-based; details: Homo sapiens, HCT-116, 3 h, 3 hr compound incubation
H358 cells = assay: Inhibition of KRas-mediated phosphorylation of ERK (Cisbio HTRF pERK), H358 cells; type: cell-based; details: Homo sapiens, NCI-H358, 3 h, 3 hr compound incubation
PSN1 cells = assay: Inhibition of KRas-mediated phosphorylation of ERK (Cisbio HTRF pERK), PSN1 cells; type: cell-based; details: Homo sapiens, PSN1, 3 h
Outline: (§1)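 Cells were seeded on day 1 at 6,000 per well in RPMI containing 10% FBS before compound treatment and phospho-ERK detection.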

MKN1 cells = assay: Inhibition of KRas-mediated phosphorylation of ERK (Cisbio HTRF pERK), MKN1 cells; type: cell-based; details: Homo sapiens
Outline: as §1

KRas WT = KRas WT (Homo sapiens, UniProt P01116); assay: KRas binding assay (TR-FRET displacement), KRas WT; details: TR-FRET displacement
Sequence of KRas WT (P01116 1-169 isoform P01116-2): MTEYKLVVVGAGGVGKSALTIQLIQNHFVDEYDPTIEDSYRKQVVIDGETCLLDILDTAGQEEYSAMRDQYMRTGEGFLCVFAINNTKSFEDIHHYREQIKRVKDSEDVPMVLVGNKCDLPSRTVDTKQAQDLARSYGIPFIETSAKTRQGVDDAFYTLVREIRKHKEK

[1] = 3 hour compound incubation, Cisbio pERK HTRF
[2] = MKN-1, 3 hour compound incubation, Cisbio pERK HTRF

Sequence of KRas G12C (P01116 1-169 isoform P01116-2 G12C): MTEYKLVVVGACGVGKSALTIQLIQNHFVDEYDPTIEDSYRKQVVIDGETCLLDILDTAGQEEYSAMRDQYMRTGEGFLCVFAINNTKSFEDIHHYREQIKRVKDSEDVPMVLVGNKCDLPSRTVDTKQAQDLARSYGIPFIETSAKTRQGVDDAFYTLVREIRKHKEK
Sequence of KRas G12V (P01116 1-169 isoform P01116-2 G12V): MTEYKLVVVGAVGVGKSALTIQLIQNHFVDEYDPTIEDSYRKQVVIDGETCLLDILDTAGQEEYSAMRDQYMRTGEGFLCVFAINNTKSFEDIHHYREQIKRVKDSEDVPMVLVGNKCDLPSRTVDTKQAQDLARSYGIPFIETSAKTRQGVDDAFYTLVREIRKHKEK
Sequence of KRas G12S (P01116 1-169 isoform P01116-2 G12S): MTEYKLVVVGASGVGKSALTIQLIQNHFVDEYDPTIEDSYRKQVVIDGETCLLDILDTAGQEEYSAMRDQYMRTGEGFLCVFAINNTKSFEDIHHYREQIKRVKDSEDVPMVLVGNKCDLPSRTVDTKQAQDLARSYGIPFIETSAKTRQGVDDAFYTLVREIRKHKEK

Row | SMILES | IC50 (KRas G12C) [nM] | IC50 (KRas G12V) [nM] | IC50 (KRas G12S) [nM] | IC50 (KRas G12D) [nM] | IC50 (KRas WT) [nM] | IC50 (A549 cells; Cisbio pERK HTRF) [nM] | IC50 (ASPC1 cells; Cisbio pERK HTRF) [nM] | IC50 (H727 cells; Cisbio pERK HTRF) [nM] | IC50 (H460 cells; Cisbio pERK HTRF) [nM] | IC50 (HCT116 cells; Cisbio pERK HTRF) [nM] | IC50 (H358 cells; Cisbio pERK HTRF) [nM] | IC50 (PSN1 cells; [1]) [nM] | IC50 (MKN1 cells; [2]) [nM] | also measured
1 | C[C@@H]1C[C@@H]1c1c(Cl)cc(O)cc1N1CCc2c(nc(OC[C@@]34CCCN3C[C@H](F)C4)nc2N2CCCn3nc(C(=O)N(C)C)cc3C2)C1 (stereo in doubt) [Example 656, 5-(7-(3-chloro-5-hydroxy-2-(cis-2-methylcyclopropyl)phenyl)-2-(((2R,7aS)-2-fluorotetrahydro-1H-pyrrolizin-7a(5H)-yl)methoxy)-5,6,7,8-tetrahydropyrido[3,4-d]pyrimidin-4-yl)-N,N-dimethyl-5,6,7,8-tetrahydro-4H-pyrazolo[1,5-a][1,4]diazepine-2-carboxamide] | 2 | < 2 | 2 | < 2 | 5 |  |  |  |  |  |  |  |  | IC50 (A549 cells): 294 nM; IC50 (ASPC1 cells): 82 nM; IC50 (H727 cells): 100 nM; IC50 (H460 cells): 307 nM; IC50 (HCT116 cells): 1220 nM; IC50 (H358 cells): 54 nM; IC50 (PSN1 cells; 3 hr compound incubation): > 10000 nM; IC50 (MKN1 cells; MKN-1, 3 hr compound incubation): 4.5 nM
2 | C=C1CN2CC(=C)CC2(COc2nc3c(c(N4CCC[C@@](C)(O)C4)n2)CCN(c2cc(O)cc4ccc(F)c(CC)c24)C3)C1 [Example 582, (R)-1-(2-((2,6-dimethylenetetrahydro-1H-pyrrolizin-7a(5H)-yl)methoxy)-7-(8-ethyl-7-fluoro-3-hydroxynaphthalen-1-yl)-5,6,7,8-tetrahydropyrido[3,4-d]pyrimidin-4-yl)-3-methylpiperidin-3-ol] | 2 | < 2 | 2 | 3 | < 2 | 86 | 79 | 204 | 63 | 219 | 40 | 2480 | 3.1 | 

Continued, in another order:

Row | IC50 (KRas G12C) [nM] | IC50 (KRas G12V) [nM] | IC50 (KRas G12S) [nM] | IC50 (KRas G12D) [nM] | IC50 (KRas WT) [nM] | IC50 (A549 cells; Cisbio pERK HTRF) [nM] | IC50 (ASPC1 cells; Cisbio pERK HTRF) [nM] | IC50 (H727 cells; Cisbio pERK HTRF) [nM] | IC50 (H460 cells; Cisbio pERK HTRF) [nM] | IC50 (HCT116 cells; Cisbio pERK HTRF) [nM] | IC50 (H358 cells; Cisbio pERK HTRF) [nM] | IC50 (PSN1 cells; [1]) [nM] | IC50 (MKN1 cells; [2]) [nM] | SMILES | also measured
3 | < 2 | < 2 | < 2 | < 2 | < 2 | 16 | 13 | 25 | 12 | 18 | 5 | 442 | 0.4 | CCc1c(F)ccc2cc(O)cc(N3CCc4c(nc(OCC56CCCN5C/C(=C\F)C6)nc4N4CCC[C@@](C)(O)C4)C3)c12 (stereo partly drawn) [Example 574, (3R)-1-(7-(8-ethyl-7-fluoro-3-hydroxynaphthalen-1-yl)-2-(((Z)-2-(fluoromethylene)tetrahydro-1H-pyrrolizin-7a(5H)-yl)methoxy)-5,6,7,8-tetrahydropyrido[3,4-d]pyrimidin-4-yl)-3-methylpiperidin-3-ol] | 
4 | < 2 | < 2 | < 2 | < 2 | < 2 | 26 | 16 | 71 | 17 | 71 | 14 | 405 | 1 | C=C1CN2CCCC2(COc2nc3c(c(N4CCC[C@@](C)(O)C4)n2)CCN(c2cc(O)cc4ccc(F)c(CC)c24)C3)C1 (stereo partly drawn) [Example 580, (3R)-1-(7-(8-ethyl-7-fluoro-3-hydroxynaphthalen-1-yl)-2-((2-methylenetetrahydro-1H-pyrrolizin-7a(5H)-yl)methoxy)-5,6,7,8-tetrahydropyrido[3,4-d]pyrimidin-4-yl)-3-methylpiperidin-3-ol] | 
5 | < 2 | < 2 | < 2 | < 2 | < 2 | 4 | 1 | 2 | 7 | 36 | 1 | 1040 | 0.3 | CCc1c(F)ccc2cc(O)cc(N3CCc4c(nc(OCC56CCCN5C/C(=C\F)C6)nc4N4CCCn5nc(C(=O)N(C)C)cc5C4)C3)c12 (centres unmarked) [Example 578, (Z)-5-(7-(8-ethyl-7-fluoro-3-hydroxynaphthalen-1-yl)-2-((2-(fluoromethylene)tetrahydro-1H-pyrrolizin-7a(5H)-yl)methoxy)-5,6,7,8-tetrahydropyrido[3,4-d]pyrimidin-4-yl)-N,N-dimethyl-5,6,7,8-tetrahydro-4H-pyrazolo[1,5-a][1,4]diazepine-2-carboxamide] | 

Reference: patent US20250368649A1, “TETRAHYDROPYRIDOPYRIMIDINE PAN-KRAS INHIBITORS” (Mirati Therapeutics, Inc., priority 2022, published 2025)
